Key:
DNA marker = assay: Detection of nucleic acids on microarrays, DNA spots; type: binding; details: ~1 μM dye in 1×TE, 5 minutes, 633 nm laser excitation
Method: (§1) A microarray consisting of a dilution series of DNA marker and rRNA is printed on a slide using a microarray spotter. The slide is equilibrated in 1×SSC buffer to remove any excess printing buffer, and then soaked with compound 9 solution at ˜1 μM final concentration in 1×TE buffer for 5 minutes, followed by a 5 minute wash in 1×TE buffer to remove any excess compound. The slide is then imaged using a array scaner using 633 nm laser excitation.

[1] = system: E. coli rRNA versus calf thymus DNA; assay: Selectivity test on RNA vs dsDNA (emission spectra in TE buffer); type: binding; details: 10 μg/mL calf thymus DNA or E. coli rRNA in 1×TE, 5 μL of 100 μM dye per mL, excitation 620 nm, FIG. 1
Method: A stock solution of compound 9 was prepared at 100 μM concentration in DMSO. Calf thymus DNA, and E. coli rRNA were prepared at 10 μg/mL concentration in 1×TE buffer, individually. To 1 mL of DNA solution and 1 mL of RNA solution was added with 5 μL of compound 9, individually. The emission spectrum associated with each of the solutions was scaned at excitation wavelength 620 nm.

rRNA [2] = assay: Microplate fluorescence intensity with RNA dilutions; type: binding; details: dye 400 nM, RNA up to 1000 ng/mL in 1×TE, Ex/Em=620/660 nm, FIG. 2
Method: (§2) A series of RNA and DNA dilutions up to 1000 ng/mL in 1×TE buffer is added to the wells of a 96-well microplate. A series of mixture of RNA and DNA is prepared according to the following table, and is added to separate wells.
(§3) Compound 9 is added to each well at a final concentration of 400 nM. The fluorescence intensity is measured on a fluorescence plate reader with Ex/Em=620/660 nm.

calf thymus DNA = assay: Microplate fluorescence intensity with DNA dilutions; type: binding; details: dye 400 nM, DNA up to 1000 ng/mL in 1×TE, Ex/Em=620/660 nm, FIG. 2
Method: as §2, §3

mixture of RNA and DNA = assay: Selectivity test on a mixture of RNA and DNA (total 1000 ng/mL); type: binding; details: dye 400 nM, RNA+DNA total 1000 ng/mL in 1×TE, Ex/Em=620/660 nm, FIG. 2
Method: as §2, §3

rRNA, tRNA and mRNA = assay: Selectivity test on different source of RNA; type: binding; details: dye 400 nM, RNA up to 1000 ng/mL in 1×TE, Ex/Em=620/660 nm, FIG. 4
Method: A series of rRNA, tRNA and mRNA dilutions up to 1000 ng/mL in 1×TE buffer is added to the wells of a 96-well microplate. Compound 9 is added to each well at a final concentration of 400 nM. The fluorescence intensity is measured on a fluorescence plate reader with Ex/Em=620/660 nm.

[3] = system: mixture of RNA and DNA at 1:1 ratio; assay: Selectivity test on a 1:1 mixture of RNA and DNA; type: binding; details: dye 100 nM, RNA:DNA 1:1 up to 200 ng/mL each in 1×TE, Ex/Em=620/660 nm, FIG. 3
Method: In another experiment, a series of RNA and DNA dilutions up to 200 ng/mL in 1×TE buffer is added to the wells of a 96-well microplate. A series of mixture of RNA and DNA at 1:1 ratio is prepared according to the following table, and is added to separate wells.
Compound 9 is added to each well at a final concentration of 100 nM. The fluorescence intensity is measured on a fluorescence plate reader with Ex/Em=620/660 nm.

rRNA [4] = assay: Detection of nucleic acids on microarrays, rRNA spots; type: binding; details: ~1 μM dye in 1×TE, 5 minutes, 633 nm laser excitation
Method: as §1

rRNA and 1 kb DNA Ladder = assay: Detection of nucleic acids in electrophoretic gels (post-gel staining); type: binding; details: 1% agarose gel, ~1 μM dye in 1×TE, ~30 min staining, 633 nm laser, 675 nm filter
Method: Agarose gels (1% agarose) are prepared according to a standard protocol. Serial two-fold dilutions of 1 kb DNA Ladder from Invitrogen and rRNA from Roche are prepared, and the resulting DNA and RNA samples are loaded onto an agarose gel. The DNA and RNA samples are electrophoretically separated in 1×TBE buffer using a standard protocol. A stock solution of compound 9 is diluted into ˜1 μM final concentration in 1×TE buffer. The agarose gels are incubated in the staining solutions for ˜30 min to stain the gels. The stained nucleic acid bands are recorded using Fuji FLA-3000 gel scanner, using 633 nm laser illumination, and a 675 nm filter.

nucleic acids = details: cited from earlier work

| Compound | staining of DNA spots on microarray (DNA marker) | selectivity for RNA versus DNA (fluorescence emission spectra) [1] | fluorescence intensity response with RNA concentration (rRNA [2]) | fluorescence signal with DNA alone (calf thymus DNA) | fluorescence intensity of mixture of RNA and DNA compared with RNA alone (mixture of RNA and DNA) | fluorescent signal when associated with rRNA, tRNA and mRNA (rRNA, tRNA and mRNA) | selectivity on RNA in a mixture of RNA and DNA [3] | staining of rRNA spots on microarray (rRNA [4]) | fluorescence signal of RNA bands versus corresponding DNA bands in gel (rRNA and 1 kb DNA Ladder) | detection sensitivity on nucleic acids (nucleic acids) |
| --- | --- | --- | --- | --- | --- | --- | --- | --- | --- | --- |
| CCN(CC)Cc1ccc(C(=C\c2sc3ccc(S(=O)(=O)NCCCS(=O)(=O)[O-])cc3[n+]2C)/C=C2\C=CN(C)c3ccccc32)cc1 [Compound 9] | undetectable | good selectivity | nice linear response | little to no signal | the same for the corresponding concentration of RNA | comparable fluorescent signal | excellent selectivity | stained | much brighter |  |
| CCCN1C=C/C(=C\c2sc3ccccc3[n+]2C)c2ccccc21 [SYBR Safe] |  |  |  |  |  |  |  |  |  | low sensitive |
| CN1C(=Cc2cc[n+](C)c3ccccc23)Sc2ccccc21 [Thiazole Orange, reference compound] |  |  |  |  |  |  |  |  |  | low detection sensitivity |
